From article PMC4459817, “Vasculotide reduces endothelial permeability and tumor cell extravasation in the absence of binding to or agonistic activation of Tie2” (EMBO Molecular Medicine, 2015)

Tested on: Tie2+ ECs (HMVEC-LBl)
Assay: MTS cell viability assay, endothelial cells
Type: cell-based, human
Conditions: for IC50: Homo sapiens, Endothelial cell, 48 h, SU in MTS viability assay, predetermined from dose-response curves, cell line of IC50 not clearly printed
Protocol: TCs were cultured in DMEM High Glucose basal media supplemented with 5% FBS and grown humidified incubators at 37 °C, 21%O2 and 5%CO2 unless otherwise specified. LM2-4 luc is a highly metastatically aggressive variant of the human breast carcinoma MDA-MB-231 cell line (derived through serial in vivo selection of lung metastases from orthotopic implantations in immunodeficient mice) that has been transfected with a firefly luciferase vector (Man et al, 2007; Ebos et al, 2009). HT29luc is a human colon carcinoma cell line also transfected with the luciferase gene (Hackl et al, 2013). SN12luc refers to a luciferase-tagged and highly metastatic clone of a human renal cell carcinoma cell line, SN12-PM6-L1luc (Jedeszko et al, 2015). MeWo is a human melanoma cell line (Ebos et al, 2009).
2. Endothelial cells (ECs)
ECs were grown in humidified incubators at 37 °C, 21%O2 and 5%CO2 unless otherwise specified.
Primary human microvascular ECs derived from adult lung blood vessels (HMVEC-LBl, Lonza CC-2815 or HLMEC ) or neonatal dermal blood vessels (HMVEC-DBl, Lonza CC-2813 or HDMEC) were grown in EBM-2 basal media (Lonza CC-3156), supplemented with EGM-2-MV growth factors (Lonza CC-4147, which includes 5% FBS and 2 ng/mL VEGF). Primary human umbilical vein ECs (HUVECs) were grown on 1% gelatinized plates in F12K media, supplemented with 10% FBS, 0.1 mg/mL heparin sodium, 10 ng/mL EGF, 10 ng/mL VEGF, 5 ng/mL bFGF and penicillin + streptomycin + 2mM L-glutamine (P/S/Glut). Transformed human EA.hy926 and murine MS1 ECs were grown in DMEM + 10% FBS + P/S/Glut (+ HAT for EA.hy926).
3. […]
5,000 LM2-4luc or HMVEC-LBl cells, in 100uL of their regular growth media, were seeded per well on a 96-well plate. […] Absorbances were read at 490nm and background-corrected with reference 560nm readings or acellular treatment-only […]
4. […] Protein concentrations in TC-CM vs. control media were measured using: a Quantikine ELISA kit (R&D Systems DVE00) for human VEGF; a FlowCytomix Multiplex kit (eBioscience BMS810FF) for human IL-6 and IL-8; and a BCA protein assay kit (Thermo Scientific) for total protein.

| Compound | IC50 ('VEGF-rich' media (0.5% FBS + 50 ng/mL VEGF)) [µM] | IC50 ('normal' media (5% FBS)) [µM] | interference with SU inhibition of ECs (48 h MTS, VT + SU, Supplementary Fig S2) |
| --- | --- | --- | --- |
| CCN(CC)CCNC(=O)c1c(C)[nH]c(/C=C2\C(=O)Nc3ccc(F)cc32)c1C [sunitinib, reference compound] | 5 | 2 | – |
| CHHHRHSF [Vasculotide, 4-armed maleimide-functionalized polyethylene glycol (PEG) backbone to link together four cysteine-capped T7 peptides, that is, CHHHRHSF] | – | – | did not interfere with SU inhibition of Tie2^+ ECs |
